Reference: BigSolDB 2.1

O=C(O)c1ccco1
solubility (mole fraction)
Conditions	in 1,2-dichloroethane	in MIBK	in acetonitrile	in diisopropyl ether	in methanol	in n-hexane	in toluene
283.15 K	0.014	0.095	0.046	0.035	0.347	–	0.005
288.15 K	0.017	0.11	0.057	0.041	0.393	–	0.006
293.15 K	0.023	0.122	0.064	0.048	0.428	–	0.008
298.15 K	0.029	0.137	0.077	0.054	0.451	0.001	0.011
303.15 K	0.035	0.154	0.093	0.061	0.48	0.001	0.013
308.15 K	0.046	0.177	0.115	0.069	0.504	0.001	0.017
313.15 K	0.057	0.195	0.132	0.077	0.524	0.002	0.021
318.15 K	0.068	0.211	0.155	0.087	0.551	0.002	0.027
323.15 K	0.084	0.237	0.182	0.097	0.571	0.003	0.034
328.15 K	0.103	0.26	0.208	0.108	0.607	0.004	0.045
333.15 K	0.126	0.286	0.242	0.121	0.643	0.005	0.056
